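Growth conditions: 96-well plates. Treatment: test compound, 48 hours, 5 concentrations. Analysis: linear interpolation between bracketing concentrations; unreached endpoints set to highest concentration. GI50 is the concentration that inhibits growth by half. TGI: concentration producing complete growth inhibition.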
Legend:
Experiment in all cases: DTP human tumour cell line panel, 48 h
[1] = system: 786-0 renal
[2] = system: A498 renal
[3] = system: A549 NSCLC
[4] = system: ACHN renal
[5] = system: BT-549 breast
[6] = system: CAKI-1 renal
[7] = system: CCRF-CEM leukemia
[8] = system: COLO 205 colon
[9] = system: DU-145 prostate
[10] = system: EKVX NSCLC
[11] = system: HCC-2998 colon
[12] = system: HCT-116 colon
[13] = system: HCT-15 colon
[14] = system: HL-60(TB) leukemia
[15] = system: HOP-92 NSCLC
[16] = system: HS 578T breast
[17] = system: HT29 colon
[18] = system: IGROV1 ovarian
[19] = system: K-562 leukemia
[20] = system: KM12 colon
[21] = system: LOX IMVI melanoma
[22] = system: M14 melanoma
[23] = system: MALME-3M melanoma
[24] = system: MCF7 breast
[25] = system: MDA-MB-231 breast
[26] = system: MDA-MB-435
[27] = system: MOLT-4 leukemia
[28] = system: NCI-H226 lung
[29] = system: NCI-H460 lung
[30] = system: NCI-H522 lung
[31] = system: NCI/ADR-RES ovarian
[32] = system: OVCAR-3 ovarian
[33] = system: OVCAR-4 ovarian
[34] = system: OVCAR-5 ovarian
[35] = system: OVCAR-8 ovarian
[36] = system: PC-3 prostate
[37] = system: RPMI-8226 leukemia
[38] = system: RXF 393 renal
[39] = system: SF-268 CNS
[40] = system: SF-295 CNS
[41] = system: SF-539 CNS
[42] = system: SK-MEL-2 melanoma
[43] = system: SK-MEL-28 melanoma
[44] = system: SK-MEL-5 melanoma
[45] = system: SK-OV-3 ovarian
[46] = system: SN12C renal
[47] = system: SNB-19 CNS
[48] = system: SNB-75 CNS
[49] = system: SR leukemia
[50] = system: SW-620 colon
[51] = system: T-47D breast
[52] = system: TK-10 renal
[53] = system: U251 CNS
[54] = system: UACC-257 melanoma
[55] = system: UACC-62 melanoma
[56] = system: UO-31 renal
[57] = system: HOP-62 NSCLC
[58] = system: NCI-H23 lung

C/C(=N\NC(=O)CSc1nc2sc3c(c2c(=O)n1-c1ccccc1)CCC(C)C3)c1ccc(Cl)cc1 (stereo unspecified)
GI50 [1]: 0.366 µM
TGI [1]: 38.1 µM
GI50 [2]: > 100 µM
TGI [2]: > 100 µM
GI50 [3]: 2.57 µM
TGI [3]: > 100 µM
GI50 [4]: 1.7 µM
TGI [4]: > 100 µM
GI50 [5]: 3.6 µM
TGI [5]: 26.5 µM
GI50 [6]: 2.04 µM
TGI [6]: > 100 µM
GI50 [7]: 0.742 µM
TGI [7]: > 100 µM
GI50 [8]: 2.94 µM
TGI [8]: 17.5 µM
GI50 [9]: 3.63 µM
TGI [9]: > 100 µM
GI50 [10]: 5.08 µM
TGI [10]: > 100 µM
GI50 [11]: 2.76 µM
TGI [11]: > 100 µM
GI50 [12]: 0.578 µM
TGI [12]: > 100 µM
GI50 [13]: 0.387 µM
TGI [13]: 25.7 µM
GI50 [14]: 1.51 µM
TGI [14]: > 100 µM
GI50 [15]: 1.33 µM
TGI [15]: 9.88 µM
GI50 [16]: 8.85 µM
TGI [16]: > 100 µM
GI50 [17]: 3.13 µM
TGI [17]: 13.3 µM
GI50 [18]: 2.82 µM
TGI [18]: > 100 µM
GI50 [19]: 0.592 µM
TGI [19]: > 100 µM
GI50 [20]: 2.66 µM
TGI [20]: > 100 µM
GI50 [21]: 0.348 µM
TGI [21]: 15.7 µM
GI50 [22]: 2.34 µM
TGI [22]: 14.1 µM
GI50 [23]: 11.8 µM
TGI [23]: > 100 µM
GI50 [24]: 0.439 µM
TGI [24]: > 100 µM
GI50 [25]: 4.67 µM
TGI [25]: > 100 µM
GI50 [26]: 3.86 µM
TGI [26]: 66.1 µM
GI50 [27]: 0.575 µM
TGI [27]: > 100 µM
GI50 [28]: 13 µM
TGI [28]: 52.7 µM
GI50 [29]: 1.16 µM
TGI [29]: > 100 µM
GI50 [30]: 3.39 µM
TGI [30]: 39.1 µM
GI50 [31]: 2.63 µM
TGI [31]: 12.6 µM
GI50 [32]: 3.33 µM
TGI [32]: > 100 µM
GI50 [33]: 2.2 µM
TGI [33]: > 100 µM
GI50 [34]: 3.52 µM
TGI [34]: > 100 µM
GI50 [35]: 3.31 µM
TGI [35]: 84.7 µM
GI50 [36]: 3.26 µM
TGI [36]: > 100 µM
GI50 [37]: 2.83 µM
TGI [37]: > 100 µM
GI50 [38]: 1.53 µM
TGI [38]: 8.71 µM
GI50 [39]: 3.73 µM
TGI [39]: > 100 µM
GI50 [40]: 4.18 µM
TGI [40]: > 100 µM
GI50 [41]: 0.866 µM
TGI [41]: 4.02 µM
GI50 [42]: 2.31 µM
TGI [42]: 14.7 µM
GI50 [43]: 7.76 µM
TGI [43]: > 100 µM
GI50 [44]: 4.8 µM
TGI [44]: 19.5 µM
GI50 [45]: 3.68 µM
TGI [45]: 36.5 µM
GI50 [46]: 3.4 µM
TGI [46]: > 100 µM
GI50 [47]: 4.89 µM
TGI [47]: > 100 µM
GI50 [48]: 2.55 µM
TGI [48]: 13.7 µM
GI50 [49]: 0.735 µM
TGI [49]: > 100 µM
GI50 [50]: 3.26 µM
TGI [50]: > 100 µM
GI50 [51]: 3.55 µM
TGI [51]: 68 µM
GI50 [52]: 4.64 µM
TGI [52]: > 100 µM
GI50 [53]: 1.98 µM
TGI [53]: > 100 µM
GI50 [54]: 16.1 µM
TGI [54]: 95.1 µM
GI50 [55]: 3.57 µM
TGI [55]: > 100 µM
GI50 [56]: 2.11 µM
TGI [56]: 15.8 µM

CCOC(=O)c1c(NCC(=O)Nc2ccc(Br)cc2)sc2c1CCCC2
GI50 [1]: 2.26 µM
TGI [1]: 6.04 µM
GI50 [2]: 1.85 µM
TGI [2]: 5.67 µM
GI50 [3]: 2.78 µM
TGI [3]: 8.46 µM
GI50 [4]: 1.74 µM
TGI [4]: 3.29 µM
GI50 [5]: 1.45 µM
TGI [5]: 3.97 µM
GI50 [6]: 2.06 µM
TGI [6]: 7.46 µM
GI50 [7]: 0.801 µM
TGI [7]: 6.72 µM
GI50 [8]: 2.01 µM
TGI [8]: 4.52 µM
GI50 [9]: 1.68 µM
TGI [9]: 3.28 µM
GI50 [10]: 1.81 µM
TGI [10]: 4.91 µM
GI50 [11]: 1.82 µM
TGI [11]: 3.36 µM
GI50 [12]: 1.63 µM
TGI [12]: 3.81 µM
GI50 [13]: 1.38 µM
TGI [13]: 3.47 µM
GI50 [14]: 1.57 µM
TGI [14]: 4.37 µM
GI50 [57]: 2.32 µM
TGI [57]: 5.71 µM
GI50 [15]: 1.42 µM
TGI [15]: 3.84 µM
GI50 [16]: 2.89 µM
TGI [16]: 32.3 µM
GI50 [17]: 1.91 µM
TGI [17]: 3.98 µM
GI50 [18]: 2.13 µM
TGI [18]: 12.1 µM
GI50 [19]: 1.66 µM
TGI [19]: 7.09 µM
GI50 [20]: 1.97 µM
TGI [20]: 4.1 µM
GI50 [21]: 0.829 µM
TGI [21]: 2.81 µM
GI50 [22]: 1.9 µM
TGI [22]: 4.9 µM
GI50 [23]: 1.77 µM
TGI [23]: 3.81 µM
GI50 [24]: 1.48 µM
TGI [24]: 3.51 µM
GI50 [25]: 2.08 µM
TGI [25]: 5.21 µM
GI50 [26]: 1.9 µM
TGI [26]: 5.58 µM
GI50 [27]: 0.712 µM
TGI [27]: 4.66 µM
GI50 [28]: 1.72 µM
TGI [28]: 6.48 µM
GI50 [58]: 1.81 µM
TGI [58]: 4.6 µM
GI50 [29]: 1.94 µM
TGI [29]: 4.31 µM
GI50 [31]: 2.6 µM
TGI [31]: 8.51 µM
GI50 [32]: 1.61 µM
TGI [32]: 3.12 µM
GI50 [33]: 1.74 µM
TGI [33]: 4.77 µM
GI50 [34]: 2.02 µM
TGI [34]: 3.77 µM
GI50 [35]: 4 µM
TGI [35]: > 100 µM
GI50 [36]: 2.46 µM
TGI [36]: 9.71 µM
GI50 [37]: 2.09 µM
TGI [37]: 5.32 µM
GI50 [38]: 1.34 µM
TGI [38]: 2.76 µM
GI50 [39]: 2.06 µM
TGI [39]: 8.24 µM
GI50 [40]: 3.95 µM
TGI [40]: 14.3 µM
GI50 [41]: 1.73 µM
TGI [41]: 3.18 µM
GI50 [42]: 1.84 µM
TGI [42]: 5.49 µM
GI50 [43]: 1.71 µM
TGI [43]: 3.49 µM
GI50 [44]: 1.65 µM
TGI [44]: 3.08 µM
GI50 [45]: 3.49 µM
TGI [45]: 10.9 µM
GI50 [46]: 2.51 µM
TGI [46]: 7.16 µM
GI50 [47]: 2.2 µM
TGI [47]: 6.31 µM
GI50 [48]: 2.22 µM
TGI [48]: 14.3 µM
GI50 [49]: 1.22 µM
TGI [49]: 5.33 µM
GI50 [50]: 2.28 µM
TGI [50]: 6.1 µM
GI50 [51]: 1.76 µM
TGI [51]: 4.61 µM
GI50 [52]: 1.74 µM
TGI [52]: 3.46 µM
GI50 [53]: 1.51 µM
TGI [53]: 3.17 µM
GI50 [54]: 2.8 µM
TGI [54]: 8.2 µM
GI50 [55]: 1.48 µM
TGI [55]: 3.16 µM
GI50 [56]: 1.5 µM
TGI [56]: 3.3 µM
